Nine compounds from patent publication US10975119B2, “Selective cysteine protease inhibitors and uses thereof” (Genesis Technologies Limited, priority 2011, dated 2021) can be followed below.

What all share (format): biochemical
In one test the target is T1, Caspase-7 (Homo sapiens, UniProt P55210).
T1 construct: mixing the compounds with the respective active caspases; purchased BioVision K157-100
T1 sequence (P55210 24-198 limits assumed): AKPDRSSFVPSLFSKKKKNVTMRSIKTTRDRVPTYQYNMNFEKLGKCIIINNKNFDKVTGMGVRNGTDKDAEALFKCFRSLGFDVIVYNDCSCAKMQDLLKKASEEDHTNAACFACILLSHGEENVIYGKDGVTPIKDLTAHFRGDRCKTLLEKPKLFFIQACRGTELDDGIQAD
T1 sequence (P55210 207-303 limits assumed): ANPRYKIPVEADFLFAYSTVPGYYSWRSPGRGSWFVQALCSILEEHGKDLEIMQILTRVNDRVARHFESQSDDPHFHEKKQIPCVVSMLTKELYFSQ
Nature of the test: Caspase-7 inhibitor screening assay (BioVision kit, DEVD-AFC). The conditions noted are these: for inhibition at 10 µM: read-out: % Inhibition at 10 uM Casp7; for inhibition at 100 µM: read-out: % Inhibition at 100 uM Casp7; for IC50: read-out: IC50 Casp7. The method, then:
(§1) The efficacy of an array of compounds as an inhibitor of the activity of Caspases 1 through 10 were assessed by using the respective Caspase Inhibitor Drug Screening Kits (Caspase-1 Catalog #: K151-100, Caspase-2 Catalog #: K152-100, Caspase-3 Catalog #: K153-100, Caspase-4 Catalog #: K154-100, Caspase-5 Catalog #: K155-100, Caspase-6 Catalog #: K156-100, Caspase-7 Catalog #: K157-100, Caspase-8 Catalog #: K158-100, Caspase-9 Catalog #: K159-100, Caspase-10 Catalog #: K160-100, BioVision) following the instructions of the manufacturer. […] Active caspases cleaved their respective synthetic substrates to release free AFC, which was then quantified by fluorometry.
(§2) Briefly, the compounds were first tested at 2 concentrations (10 uM and 100 uM final) to determine if there is a hit. […] Each condition was tested in duplicates. […] For some samples, a smaller range of concentrations was tested depending on the % Inhibition results at 10 uM and 100 uM. Results were summarized in Tables 2, 3, and 4 herein after. Table 2 represents the IC50 values (uM) of the test compounds as inhibitors of the activity of the various caspases.
(§3) (*) RFU (no inhibitor control)—RFU (compound at a specific concentration)
(§4) RFU (no inhibitor control)

Another test addresses T2, Caspase-9 (Homo sapiens, UniProt P55211).
T2 construct: purchased BioVision K159-100
T2 sequence (P55211 1-315 limits assumed): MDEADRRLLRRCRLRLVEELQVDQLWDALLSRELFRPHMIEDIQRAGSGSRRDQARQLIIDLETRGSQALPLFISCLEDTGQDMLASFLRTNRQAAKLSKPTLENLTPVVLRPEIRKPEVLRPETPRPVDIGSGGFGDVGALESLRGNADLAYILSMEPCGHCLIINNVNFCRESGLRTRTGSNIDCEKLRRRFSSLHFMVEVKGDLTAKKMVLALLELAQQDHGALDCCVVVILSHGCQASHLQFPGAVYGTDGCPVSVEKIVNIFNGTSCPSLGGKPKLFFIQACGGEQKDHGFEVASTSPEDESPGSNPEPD
T2 sequence (P55211 331-416 limits assumed): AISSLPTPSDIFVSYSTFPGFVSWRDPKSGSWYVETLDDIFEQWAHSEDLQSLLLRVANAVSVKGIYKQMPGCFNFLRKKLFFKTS
Nature of the test: Caspase-9 inhibitor screening assay (BioVision kit, LEHD-AFC). Particulars: for inhibition at 10 µM: read-out: % Inhibition at 10 uM Casp9; for inhibition at 100 µM: read-out: % Inhibition at 100 uM Casp9; for IC50: read-out: IC50 Casp9. As to the method: as §1, §2, §3, §4

For a further test, the target named is T3, Caspase-1 (Homo sapiens, UniProt P29466).
T3 construct: mixing the compounds with the respective active caspases; purchased BioVision K151-100
T3 sequence (P29466 120-297 limits assumed): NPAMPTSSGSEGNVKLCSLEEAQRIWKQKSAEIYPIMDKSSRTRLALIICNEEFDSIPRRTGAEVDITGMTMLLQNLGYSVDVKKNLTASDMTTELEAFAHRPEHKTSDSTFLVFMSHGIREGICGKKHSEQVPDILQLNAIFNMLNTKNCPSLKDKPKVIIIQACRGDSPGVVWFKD
T3 sequence (P29466 317-404 limits assumed): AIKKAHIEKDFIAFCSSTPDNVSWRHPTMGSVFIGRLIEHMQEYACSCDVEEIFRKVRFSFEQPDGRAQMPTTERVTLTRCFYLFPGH
The experiment in a line: Caspase-1 inhibitor screening assay (BioVision kit, YVAD-AFC). The conditions noted are these: for inhibition at 10 µM: read-out: % Inhibition at 10 uM Casp1; for inhibition at 100 µM: read-out: % Inhibition at 100 uM Casp1. As to the method:
as §1, §2, §3, §4

For the next test, the target named is T4, Caspase-2 (Homo sapiens, UniProt P42575).
T4 construct: mixing the compounds with the respective active caspases; purchased BioVision K152-100
T4 sequence (P42575 170-325 limits assumed): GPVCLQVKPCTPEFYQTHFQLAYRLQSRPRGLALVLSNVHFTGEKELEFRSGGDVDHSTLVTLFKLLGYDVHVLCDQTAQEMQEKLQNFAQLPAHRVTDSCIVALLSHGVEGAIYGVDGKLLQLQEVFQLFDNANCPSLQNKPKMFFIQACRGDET
T4 sequence (P42575 334-452 limits assumed): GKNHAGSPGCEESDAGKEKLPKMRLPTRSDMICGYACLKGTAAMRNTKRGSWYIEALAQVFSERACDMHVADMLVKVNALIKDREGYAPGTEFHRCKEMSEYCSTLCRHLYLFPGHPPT
Nature of the test: Caspase-2 inhibitor screening assay (BioVision kit, VDVAD-AFC). Particulars: for inhibition at 10 µM: read-out: % Inhibition at 10 uM Casp2; for inhibition at 100 µM: read-out: % Inhibition at 100 uM Casp2; for IC50: read-out: IC50 Casp2. As to the method: as §1, §2, §3, §4

Structures are written as SMILES. Like-named read-outs stand apart in the source and are kept apart here. A value given as a limit tells only on which side of the number the result lay.

A word on the inhibition: it is the percentage by which the read-out fell short of the control. Broadly, the IC50 is the concentration that inhibits the measured activity by half. With `CS(=O)(=O)/C=C/[C@H](CC(=O)O)NC(=O)[C@@H](N)CCC(=O)O` [Compound 22, Glu-Asp methylsulfone], the inhibition at 10 µM at Caspase-7 stood at 0%; on Caspase-9 it was 2%; at Caspase-1, 0%; on Caspase-2, 12%. In addition, the inhibition at 100 µM was 0% on Caspase-7, 0% on Caspase-9, 0% at Caspase-1 and 13% on Caspase-2. Besides, the IC50 at Caspase-7, on Caspase-9, at Caspase-1 (read-out: IC50 Casp1) and at Caspase-2 was greater than 100 µM in each case.
On to `CS(=O)(=O)/C=C/[C@H](CC(=O)O)NC(=O)[C@H]1CCCN1C(=O)[C@@H](NC(=O)[C@H](CC(=O)O)NC(=O)OCc1ccccc1)c1ccccc1` [Compound 30, Z-Asp-Phenylglycine-Pro-Asp-methyl vinyl sulfone], for which the inhibition at 10 µM at Caspase-7 is 68%; at Caspase-9, 48%; at Caspase-1 it was 55%; on Caspase-2 it was 11%. For the same compound, the inhibition at 100 µM at Caspase-7 was 97%; at Caspase-9 it was 92%; at Caspase-1, 92%; at Caspase-2, 66%. Besides, the IC50 on Caspase-7 worked out at 6.12 µM; on Caspase-9, 10.8 µM; at Caspase-1 (read-out: IC50 Casp1) it was 8 µM; on Caspase-2 it was 53.7 µM.
For the compound `CC(C)[C@H](NC(=O)[C@H](Cc1cn(C)c2ccccc12)NC(=O)[C@H](CC(=O)O)NC(=O)OCc1ccccc1)C(=O)N[C@H](/C=C/S(C)(=O)=O)CC(=O)O` [Compound 36, Z-Asp-Trp(N-Me)-Val-Asp-methyl vinyl sulfone], the inhibition at 10 µM was determined as 95% at Caspase-7, 39% on Caspase-9, 75% at Caspase-1 and 0% on Caspase-2. Moreover, the inhibition at 100 µM turned out to be 99% on Caspase-7, 87% at Caspase-9, 94% on Caspase-1 and 19% at Caspase-2. Moreover, the IC50 was 0.85 µM at Caspase-7, 16.9 µM on Caspase-9, 3.8 µM at Caspase-1 (read-out: IC50 Casp1) and greater than 100 µM on Caspase-2.
`CC(C)[C@H](NC(=O)c1ccc2ccccc2n1)C(=O)N[C@H](/C=C/S(C)(=O)=O)CC(=O)O` [Compound 16, 2-Quinoline carbonyl-Val-Asp methyl vinyl sulfone]: the inhibition at 10 µM on Caspase-7 came out at 3%; on Caspase-9, 0%; at Caspase-1 it was 0%; at Caspase-2, 1%. The inhibition at 100 µM is 19% on Caspase-7, 0% on Caspase-9, 0% on Caspase-1 and 3% at Caspase-2. Besides, the 50% inhibitory concentration (IC50) at Caspase-7, on Caspase-9, at Caspase-1 (read-out: IC50 Casp1) and at Caspase-2 was greater than 100 µM throughout.
For the compound `CC(C)(C)[C@H](NC(=O)c1ccc2ncccc2n1)C(=O)N1CCCC1C(=O)N[C@H](/C=C/S(C)(=O)=O)CC(=O)O` (stereo in doubt) [Compound 8, (1,5-Naphthyridine-2-carbonyl)-t-Leu-Pro-Asp methyl vinyl sulfone], the inhibition at 10 µM turned out to be 0% at Caspase-7, 24% on Caspase-9, 91% at Caspase-1 and 3% at Caspase-2. Further, the inhibition at 100 µM turned out to be 0% at Caspase-7, 73% on Caspase-9, 100% at Caspase-1 and 5% at Caspase-2. In addition, the IC50 is greater than 100 µM at Caspase-7, 47.3 µM on Caspase-9, 0.88 µM on Caspase-1 (read-out: IC50 Casp1) and greater than 100 µM on Caspase-2.
Consider `CS(=O)(=O)/C=C/[C@H](CC(=O)O)NC(=O)C1CCCN1C(=O)[C@@H](NC(=O)[C@H](CC(=O)O)NC(=O)OCc1ccccc1)C1CC1` (stereo in doubt) [Compound 28, Z-Asp-Cyclopropylglycine-Pro-Asp-methyl vinyl sulfone], for which the inhibition at 10 µM at Caspase-7 amounted to 87%; at Caspase-9 it was 54%; at Caspase-1, 49%; at Caspase-2 it was 22%. Moreover, the inhibition at 100 µM at Caspase-7 was found to be 99%; at Caspase-9, 93%; on Caspase-1 it was 90%; on Caspase-2 it was 79%. For the same compound, the IC50 is 2.5 µM on Caspase-7, 9.07 µM on Caspase-9, 10.6 µM on Caspase-1 (read-out: IC50 Casp1) and 30.4 µM on Caspase-2.
Take `CC(C)(C)[C@H](NC(=O)c1ccc2ncccc2c1)C(=O)N1CCCC1C(=O)N[C@H](/C=C/S(C)(=O)=O)CC(=O)O` (stereo in doubt) [Compound 10, Quinoline-6-carbonyl-t-Leu-Pro-Asp methyl vinyl sulfone]: the inhibition at 10 µM at Caspase-7 was determined as 3%; at Caspase-9, 76%; at Caspase-1, 90%; at Caspase-2, 3%. The inhibition at 100 µM at Caspase-7 amounted to 73%; at Caspase-9, 98%; at Caspase-1 it was 100%; at Caspase-2, 6%. Also, the IC50 was 53.6 µM at Caspase-7, 3.23 µM at Caspase-9, 0.12 µM on Caspase-1 (read-out: IC50 Casp1) and greater than 100 µM at Caspase-2.
Take `CCOC(=O)/C=C/[C@H](CC(=O)O)NC(=O)[C@@H](NC(=O)[C@H](CCC(=O)O)NC(=O)[C@@H](NC(=O)OCc1ccccc1)C(C)C)c1ccccc1` [Compound 126, Z-Val-Glu-Phg-Asp-Ethyl Vinyl ester]: the concentration for half-maximal inhibition (IC50) at Caspase-7 was greater than 100 µM; on Caspase-9 it was greater than 100 µM; at Caspase-1 (read-out: IC50 Casp1) it was 1 µM; at Caspase-2 it was greater than 100 µM.
Turning to `CC(C)[C@H](NC(=O)[C@H](CCC(=O)O)NC(=O)[C@H](Cc1c[nH]c2ccccc12)NC(=O)OCc1ccccc1)C(=O)N[C@H](/C=C/S(C)(=O)=O)CC(=O)O` [Compound 40, Z-Trp-Glu-Val-Asp-methyl vinyl sulfone], the inhibition at 10 µM is 19% at Caspase-7, 87% at Caspase-9, 99% on Caspase-1 and 1% at Caspase-2. In addition, the inhibition at 100 µM at Caspase-7 turned out to be 90%; on Caspase-9 it was 99%; at Caspase-1, 100%; at Caspase-2, 10%. Moreover, the IC50 at Caspase-7 was 23.7 µM; at Caspase-9, 1.74 µM; at Caspase-1 (read-out: potency (IC50) against caspase-1) it was 0.026 µM; on Caspase-2, greater than 100 µM.
